The values that follow come from US11613531B2, “Inhibitors of RHO associated coiled-coil containing protein kinase” (Kadmon Corporation, LLC, priority 2017, dated 2023).

Test [1] deals with Recombinant ROCK2 (amino acids 1-552) (Homo sapiens (Human), UniProt O75116). The test is described as follows: Z′-Lyte kinase assay, ROCK2. The class given is biochemical. The conditions noted are these: for inhibition at 1 µM: 1 μM compound, read-out: ROCK2 % inh. @ [conc]. As to the method: Determination of Compound's ROCK Inhibitory Activity In Vitro (Z'Lyte Assay).
Sequence of Recombinant ROCK2 (amino acids 1-552) (O75116 1-552): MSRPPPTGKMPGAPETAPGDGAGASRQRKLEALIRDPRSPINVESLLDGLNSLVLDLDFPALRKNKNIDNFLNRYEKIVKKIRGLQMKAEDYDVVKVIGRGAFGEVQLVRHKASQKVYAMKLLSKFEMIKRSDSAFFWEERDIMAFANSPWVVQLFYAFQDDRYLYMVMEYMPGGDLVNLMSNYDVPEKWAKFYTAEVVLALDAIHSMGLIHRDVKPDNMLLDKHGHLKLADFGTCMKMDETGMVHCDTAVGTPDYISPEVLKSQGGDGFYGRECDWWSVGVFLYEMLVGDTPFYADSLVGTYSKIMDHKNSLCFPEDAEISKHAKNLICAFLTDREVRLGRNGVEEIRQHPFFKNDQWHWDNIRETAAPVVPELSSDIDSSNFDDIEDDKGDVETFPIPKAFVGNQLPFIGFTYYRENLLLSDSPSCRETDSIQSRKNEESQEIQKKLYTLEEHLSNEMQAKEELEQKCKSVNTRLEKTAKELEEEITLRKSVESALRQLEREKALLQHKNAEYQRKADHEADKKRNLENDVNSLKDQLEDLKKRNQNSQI
Recombinant ROCK1 (amino acids 1-535) and ROCK2 (amino acids 1-552) proteins were purchased from ThermoFisher Scientific. Compound's activities were measured by Z′-lyte kinase kit (ThermoFisher Scientific) and IC50 was calculated
In vitro activities for the compounds were measured with Z′-lyte kinase kit (ThermoFisher Scientific). The percent inhibition rate was calculated by normalizing the kinase activity value obtained with 1 μM compound treatment against DMSO control value and then applied to the formula, [1-(compound/DMSO)]×100%. IC50s were calculated using the nonlinear regression curve fit function of the GraphPad Prism software with kinase activities data measured with 9 points 2-fold serial dilution of compounds treatment. In cell pMLC IC50s were calculated with data obtained from A7R5 cell experiments. A7R5 cells were treated with 9 points 2-fold serial dilution of compounds and ppMlc (T18/S19) levels were determined to calculate cellular IC50 values of the compounds using the nonlinear regression curve fit function of the GraphPad Prism software. NIH3T3 cells stably expressing ACTA2-promoter-driven-luciferase were applied to measure ROCK compounds functional IC50s in cells. Cells were plated in 96 well plates to confluence and treated with 9 points serial dilution of compounds in combination with TGFβ1 for 24 hr. Luciferase activities were measured and compound's IC50s were calculated using the nonlinear regression curve fit function of the GraphPad Prism software.

Test [2] concerns ppMlc (T18/S19) levels in A7R5 cells. The test is described as follows: A7R5 in-cell ELISA (pMLC). Format: cell-based, Rat. The note with it: Rattus norvegicus, A7R5, A7R5 cells; for inhibition at 1 µM: 1 μM compound; for inhibition at 1 µM / inhibition at 10 µM: read-out: pMLC % inh A7R5 @ [conc]; for inhibition at 10 µM: 10 μM compound; for IC50: ppMlc (T18/S19). In short, it runs like this:
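Cellular IC50 came from a nonlinear regression fit of ppMlc (T18/S19) signal, read by colorimetric in-cell ELISA on fixed cells. Rat A7R5 aortic smooth muscle cells had been exposed for 90 min to compounds in 9-point 2-fold serial dilution, 24 h after seeding.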
A general note: ELISA stands for enzyme-linked immunosorbent assay.

pIC50: −log10 of the molar value.

As to `c1cc(Nc2ccc3[nH]ncc3c2)nc(N2CC3CNC(C3)C2)n1` (stereo not shown) [Example 78, N-(2-(3,6-diazabicyclo[3.2.1]octan-3-yl)pyrimidin-4-yl)-1H-indazol-5-amine], the inhibition at 1 µM amounted to 99.1% in test [1] and 20.3% in test [2].

Consider `c1cc(Nc2ccc3[nH]ncc3c2)nc(N2CCN3CCNCC3C2)n1` (stereo not shown) [Example 84, N-(2-(octahydro-2H-pyrazino[1,2-a]pyrazin-2-yl)pyrimidin-4-yl)-1H-indazol-5-amine], for which the inhibition at 1 µM stood at 22.2% in test [1] and 0.7% in test [2].

On to `c1cc(Nc2ccc3[nH]ncc3c2)nc(N2CCC3CNCC3CC2)n1` (stereo not shown) [Example 85, N-(2-(octahydropyrrolo[3,4-d]azepin-6(1H)-yl)pyrimidin-4-yl)-1H-indazol-5-amine], for which the inhibition at 1 µM in test [1] is 98%; in test [2], 17.3%.

`c1ccc2c(c1)N(c1nccc(Nc3ccc4[nH]ncc4c3)n1)CC21CCNCC1` [Example 87, N-(2-(spiro[indoline-3,4′-piperidin]-1-yl)pyrimidin-4-yl)-1H-indazol-5-amine]: the values for the inhibition at 1 µM in test [1] and in test [2] were 7.6% and 5.8%, respectively.

`c1ccc2c(c1)C(C1CCNCC1)CN2c1nccc(Nc2ccc3[nH]ncc3c2)n1` (stereo not shown) [Example 88, N-(2-(3-(piperidin-4-yl)indolin-1-yl)pyrimidin-4-yl)-1H-indazol-5-amine]: the figures for the inhibition at 1 µM in test [1] and in test [2] were 13.8% and 5.6%, respectively.

For the molecule `c1ccc2c(c1)C(C1CCCNC1)CN2c1nccc(Nc2ccc3[nH]ncc3c2)n1` (stereo not shown) [Example 89, N-(2-(3-(piperidin-3-yl)indolin-1-yl)pyrimidin-4-yl)-1H-indazol-5-amine], the values for the inhibition at 1 µM in test [1] and in test [2] were 12.7% and 20.1%, respectively.

The IC50 is the midpoint of a concentration-inhibition curve. Regarding `CC1CN(c2ncc(Cl)c(Nc3ccc4[nH]ncc4c3)n2)CCCN1` (stereo not shown) [Example 90, N-(5-chloro-2-(3-methyl-1,4-diazepan-1-yl)pyrimidin-4-yl)-1H-indazol-5-amine], the inhibition at 1 µM in test [1] was found to be 73.8%. In test [2], the inhibition at 10 µM is 54.2% and the IC50 was 2200 nM.

As for `Cc1cnc(N2CCNC(C)C2)nc1Nc1ccc2[nH]ncc2c1` (stereo not shown) [Example 91, N-(5-methyl-2-(3-methylpiperazin-1-yl)pyrimidin-4-yl)-1H-indazol-5-amine], the inhibition at 1 µM in test [1] was determined as 47.9%. Besides, the inhibition at 10 µM in test [2] was found to be 46.7%.

In the case of `Cc1cnc(N2CCNCC2)nc1Nc1ccc2[nH]ncc2c1` [Example 95, N-(5-methyl-2-(piperazin-1-yl)pyrimidin-4-yl)-1H-indazol-5-amine], in test [1], the inhibition at 1 µM came to 61%. In addition, the inhibition at 10 µM in test [2] is 46.7%.

For `CCC1CCN(c2ncc(C)c(Nc3ccc4[nH]ncc4c3)n2)CCN1` (stereo not shown) [Example 96, N-(2-(5-ethyl-1,4-diazepan-1-yl)-5-methylpyrimidin-4-yl)-1H-indazol-5-amine], the inhibition at 1 µM in test [1] was found to be 27.2%. Also, the inhibition at 10 µM in test [2] was determined as 14.3%.

For the molecule `Cc1cnc(N2CCNCC2C)nc1Nc1ccc2[nH]ncc2c1` (stereo not shown) [Example 97, N-(5-methyl-2-(2-methylpiperazin-1-yl)pyrimidin-4-yl)-1H-indazol-5-amine], in test [1], the inhibition at 1 µM was found to be 54%. In test [2], the inhibition at 10 µM was 52.5% and the IC50 is 2340 nM.

On to `Cc1cnc(N2CC(C)NC(C)C2)nc1Nc1ccc2[nH]ncc2c1` (stereo not shown) [Example 98, N-(2-(3,5-dimethylpiperazin-1-yl)-5-methylpyrimidin-4-yl)-1H-indazol-5-amine], for which, in test [1], the inhibition at 1 µM came to 0%. In test [2], the inhibition at 10 µM came out at 17.4%.

`Cc1cnc(N2CCNC(C)CC2)nc1Nc1ccc2[nH]ncc2c1` (stereo not shown) [Example 100, N-(5-methyl-2-(5-methyl-1,4-diazepan-1-yl)pyrimidin-4-yl)-1H-indazol-5-amine]: the inhibition at 1 µM in test [1] is 47.5%. In addition, in test [2], the inhibition at 10 µM was 46.4%.

The pIC50 is −log10 of the IC50, conventionally taken in molar units. As for `Cc1cnc(N2CCCNC(C)C2)nc1Nc1ccc2[nH]ncc2c1` (stereo not shown) [Example 102, N-(5-methyl-2-(3-methyl-1,4-diazepan-1-yl)pyrimidin-4-yl)-1H-indazol-5-amine], the inhibition at 1 µM in test [1] amounted to 48.5%. Moreover, the negative-log IC50 (pIC50) in test [1] (9 points 2-fold serial dilution) is 5.96. Also, in test [2], the inhibition at 10 µM is 43.5%.

Consider `Cc1cnc(N2CCCNCC2C)nc1Nc1ccc2[nH]ncc2c1` (stereo not shown) [Example 104, N-(5-methyl-2-(2-methyl-1,4-diazepan-1-yl)pyrimidin-4-yl)-1H-indazol-5-amine], for which the results for the inhibition at 1 µM in test [1] and in test [2] were 82.9% and 31.6%, respectively. For the same molecule, the IC50 in test [2] came out at 997 nM.

Take `CCC1CNCCCN1c1ncc(C)c(Nc2ccc3[nH]ncc3c2)n1` (stereo not shown) [Example 105, N-(2-(2-ethyl-1,4-diazepan-1-yl)-5-methylpyrimidin-4-yl)-1H-indazol-5-amine]: the inhibition at 1 µM was determined as 53.9% in test [1] and 15.1% in test [2].

With `CCC1CN(c2ncc(C)c(Nc3ccc4[nH]ncc4c3)n2)CCCN1` (stereo not shown) [Example 106, N-(2-(3-ethyl-1,4-diazepan-1-yl)-5-methylpyrimidin-4-yl)-1H-indazol-5-amine], the inhibition at 1 µM in test [1] worked out at 34.1%; in test [2] it was 12.8%.

Take `Cc1cnc(N2C3CCC2CNC3)nc1Nc1ccc2[nH]ncc2c1` [Example 107, N-(2-(3,8-diazabicyclo[3.2.1]octan-8-yl)-5-methylpyrimidin-4-yl)-1H-indazol-5-amine]: the inhibition at 1 µM in test [1] worked out at 98.3%; in test [2], 26%.

Turning to `CCC1CCN(c2nc(C)cc(Nc3ccc4[nH]ncc4c3)n2)CCN1` (stereo not shown) [Example 109, N-(2-(5-ethyl-1,4-diazepan-1-yl)-6-methylpyrimidin-4-yl)-1H-indazol-5-amine], in test [1], the inhibition at 1 µM was determined as 68.4%. Also, in test [2], the inhibition at 10 µM came to 52.3% and the IC50 turned out to be 1880 nM.

Turning to `Cc1cc(Nc2ccc3[nH]ncc3c2)nc(N2CCCNC(C(C)C)C2)n1` (stereo not shown) [Example 110, N-(2-(3-isopropyl-1,4-diazepan-1-yl)-6-methylpyrimidin-4-yl)-1H-indazol-5-amine], the inhibition at 1 µM in test [1] turned out to be 67.5%. In test [2], the inhibition at 10 µM is 50.9% and the IC50 came out at 1390 nM.

In the case of `Cc1cc(Nc2ccc3[nH]ncc3c2)nc(N2CCNC(C(C)C)CC2)n1` (stereo not shown) [Example 111, N-(2-(5-isopropyl-1,4-diazepan-1-yl)-6-methylpyrimidin-4-yl)-1H-indazol-5-amine], the inhibition at 1 µM in test [1] came to 31.8%. Besides, in test [2], the inhibition at 10 µM turned out to be 44%.

Take `Cc1cc(Nc2ccc3[nH]ncc3c2)nc(N2CC(C)NC(C)C2)n1` (stereo not shown) [Example 113, N-(2-(3,5-dimethylpiperazin-1-yl)-6-methylpyrimidin-4-yl)-1H-indazol-5-amine]: the inhibition at 1 µM in test [1] came to 58.1%. Further, in test [2], the inhibition at 10 µM was found to be 47.5% and the IC50 came to 2880 nM.

In the case of `CCC1CN(c2nc(C)cc(Nc3ccc4[nH]ncc4c3)n2)CCN1` (stereo not shown) [Example 114, N-(2-(3-ethylpiperazin-1-yl)-6-methylpyrimidin-4-yl)-1H-indazol-5-amine], the inhibition at 1 µM in test [1] is 82%. The inhibition at 10 µM in test [2] was 48.7%.

With `Cc1cc(Nc2ccc3[nH]ncc3c2)nc(N2CCNC(C(C)C)C2)n1` (stereo not shown) [Example 115, N-(2-(3-isopropylpiperazin-1-yl)-6-methylpyrimidin-4-yl)-1H-indazol-5-amine], the inhibition at 1 µM in test [1] was determined as 64.2%. Further, the inhibition at 10 µM in test [2] is 48.2%.
